According to US20080319001A1, “Cancer Treatment Using Specific 3,6,9-Substituted Acridines” (priority 2005, published 2008):

Tests used:
[1] = test system: human telomerase; details: Read et al. 2001; Harrison et al. 2003; Schultes et al. 2004; cited from earlier work
[2] = test system: A549-derived xenografts; experiment: A549 xenograft combination study; assay type: in vivo, mouse; details: single agent (AS1410 1 mg/kg or cisplatin 6 mg/kg), after approximately 60 days
Method: AS1410 was reconstituted in 0.9% saline B.P. to the required final concentration (0.331 and 0.0993) mg/ml of AS1410 succinate salt for intravenous administration).
The xenografts were prepared from the lung carcinoma A549 (ATCC Number CCL-185). Cells were grown in accordance with standard operating procedures and established methodology for this cell line to provide 5×10^6 cells per mouse.
A549-derived xenografts were established in 50 female nu/nu MF1 mice respectively by subcutaneous injection into the right flank of each mouse (5×10^6 cells in 100 μl phosphate buffered saline).
Animals were checked regularly until visible tumours appeared. Tumours were then measured in accordance with the relevant SOP regularly and tumour volume calculated using the formula: […]
Once the tumours were established, the mice were allocated into groups of 9 mice using a randomization procedure based on stratified xenograft volume.
Day 0 is defined as the day on which the average tumour volume is between 0.04 to 0.1 cm^3. Relative tumour volume on Day 0 is defined as 1.
Each mouse was observed and tumours measured until the xenografts tripled (3V0) in volume compared with volume on the day of treatment (V0). The elapsed period is the volume tripling time (VTT).
AS1410 was given by slow bolus intravenous injection. For AS1410 a dose volume 5 μl/g bodyweight was used. Control mice were untreated. […]

For Nc1ccc(Nc2c3ccc(NC(=O)CCN4CCCC4)cc3nc3cc(NC(=O)CCN4CCCC4)ccc23)cc1 [BR-ACO-20], the “in vitro inhibitory activity against human telomerase” value [1] is listed as “potent in vitro inhibitory activity”.
With N.N.[Cl][Pt][Cl] [cisplatin, cis-diaminedichloroplatinum(II)] the relative tumour volume [2] was “about 5”.
